Experimental findings from patent US6603023B2 (priority 1996, dated 2003) are described below.

The structures appear in SMILES notation. Read-outs that look alike come from different tables or passages of the source. Starred links: 1 amine or outer side, 2 acyl side, 3 side chain; linkers in the order of their positions; H or OH if unused. Positions of bridges follow the written chain, without caps; N, C: chain ends. Non-standard residues stand in square brackets, D forms with d. Residues, ends and D or L forms follow the SMILES beside them. Chains are numbered I, II in the order given. Actinocin(9to1) = Cc1c2oc3c(C)ccc(C(=O)[*:1])c3nc-2c(C(=O)[*:2])c(N)c1=O; NMeV = CN[C@H](C(=O)O)C(C)C; Sar = CNCC(=O)O

Broadly, the IC50 is the concentration needed to halve the response being measured.

The conditions of data set [1]: from C/C(=C\c1csc(C)n1)[C@@H](O)C/C=C\CCCC[C@H](O[Si](C)(C)C(C)(C)C)[C@@H](C)C(=O)C(C)(C)[C@H](CC(=O)O)O[Si](C)(C)C(C)(C)C; ester bond; DCC/DMAP/DMAP.HCl; CHCl3; 0.32 mM; 80.0 °C; 20.0 h.
Data set [2] concerns P388/Adr. Nature of the data set: cells. The data set is classed as cell-based, murine. Conditions: Table 1C. As to the method:
(§1) The drug-resistant cell lines were continuously cultured in the presence of the selecting agent, AD, DX, VBL or VM to maintain the drug resistant phenotypes. […] All cells were cultured in RPMI 1640-10% FBS at 37° C. 5% CO2 (see below).
(§2) The cells were cultured at an initial density of 5×10^4 cells/mL. They were maintained in a 5% CO2-humidified atmosphere at 37° C. in RPMI-1640 medium (GIBCO-BRL, Gaithersburg, Md.) containing penicillin (100 U/mL), streptomycin ([…]) (GIBCO-BRL) and 10% heat inactivate fetal bovine serum. Culture for cell suspension (such as for CCRF-CEM, P388 and sublines), were performed by the XTT-microculture tetrazonium method (Scudiero, D. A. et al., Cancer Res. 1988, 48, 4827-4833) in duplicate in 96-well microtiter plates.
(§3) 2′,3′-Bis(methoxy-4-nitro-5-sufophenyl)-5-[(phenylamino)carbonyl]2H-tetrazolium hyudroxide (XTT) was prepared at 1 mg/mL in prewarmed (37° C.) medium without serum. Phenazine methosulfate (PMS) and fresh XTT were mixed together to obtain 0.025 mM PMS-XTT solution (25 μL of the stock 5 mM PMS was added per 5 mL of 1 mg/mL XTT). Following a 72 h incubation, 50 μL of the assay aliquots were added to each well of the cell culture. After incubation at 37° C. for 4 h, absorbance at 450 nm and 630 nm was measured with a microplate reader (EL340, Bio-Tek Instruments, Inc., Winooski, Vt.).

Data set [3] has as its system DC-3F/ADX. Nature of the data set: cells. It counts as cell-based, hamster. Conditions: for IC50: read-out: IC50. As for the experimental part:
(§4) The DC-3F hamster lung fibroblast cell line and its actinomycin D-selected sublines (DC-3F/ADII and DC-3F/ADX) were obtained from the Memorial Sloan-Kettering Cancer Center (MSKCC).
as §1
(§5) The cytotoxicity of the drug toward the monolayer cell cultures (such as DC-3F, MCF-7, SK-N-As and sublines) was determined in 96-well microtiter plates by the SRB method as described by Skehan and co-workers (Skehan, P., et al., J. Natl. Cancer Inst. 1990, 82, 1107-1112) for measuring the cellular protein content. Cultures were fixed with trichloroacetic acid and then stained for 30 min with 0.4% suforhodamine B dissolved in 1% acetic acid. Unbound dye was removed by acetic acid washes, and the protein-bound dye was extracted with an unbuffered Tris base (tris(hydroxy-methyl)aminomethane) for determination of absorbance at 570 nm in a 96-well microtiter plate reader. The experiments were carried out in duplicate. Each run entailed six to seven concentrations of the tested drugs. Data were analyzed with the median-effect plot (Chou, T.-C. & Talalay, P. T. (1984) Adv. Enzyme Regul. 22, 27-55) using a previously described computer program (Chou, J., & Chou T.-C. 1987, Dose-effect analysis with microcomputers: Quantitation of ED50, synergism, antagonism, low-dose risk, reception-ligand binding and enzyme kinetics, IBM-PC software and manual, Biosoft, Cambridge, U.K.).
(§6) Concerning Table 3, experiments were carried out using the cell lines DC-3F (parent hamster lung cells), DC-3F/ADII (moderate multidrug-resistant (MDR) cells) and DC-3F/ADX (very strong MDR cells).

Data set [4] concerns MCF-7/Adr. Kind of data set: cells. It counts as cell-based, human. Conditions: Table 1C. As for the experimental part: Cultures were fixed with trichloroacetic acid and then stained for 30 min with 0.4% suforhodamine B dissolved in 1% acetic acid. Unbound dye was removed by acetic acid washes, and the protein-bound dye was extracted with an unbuffered Tris base (tris(hydroxy-methyl)aminomethane) for determination of absorbance at 570 nm in a 96-well microtiter plate reader. The experiments were carried out in duplicate. Each run entailed six to seven concentrations of the tested drugs.

The subject of data set [5] is CCRF-CEM/VBL100. Kind of data set: cells. It counts as cell-based, human. Conditions: Table 1A. In short, it runs like this:
(§7)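 Duplicate 72 h cultures at 5×10^4 cells/mL, 37 °C, 5% CO2; then XTT plus PMS for 4 h; dual-wavelength read at 450/630 nm. Resistant sublines held under their selecting agents.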

The subject of data set [6] is CCRF-CEM/VM1. Nature of the data set: cells. The data set is classed as cell-based, human. The settings on record: Table 1A. In short, it runs like this:
as §7

The test system of data set [7] is CCRF-CEM/Taxol®. Nature of the data set: cells. The data set is classed as cell-based, human. An outline of the steps: as §7
The test system of data set [8] is murine leukemic P388/0. Nature of the data set: XTT cytotoxicity, P388/0. The data set is classed as cell-based. The settings on record: Table 1C; XTT, 72 h; read-out: IC50. As to the method:
as §4, §1, §2, §3
(In general: Formazan colour is commonly taken as a measure of viable cells.)

The test system of data set [9] is human neuroblastoma SK-N-As. Nature of the data set: SRB cytotoxicity, SK-N-As. It counts as cell-based. Conditions: Table 1C; SRB, 72 h; read-out: IC50. As for the experimental part: as §4, §1, §5
Data set [10] deals with CCRF-CEM human T-cell acute lymphoblastic leukemia cell line. Kind of data set: XTT cytotoxicity (cell growth inhibition), CCRF-CEM. Conditions: Table 1A; XTT, 72 h. An outline of the steps:
as §7

For data set [11], the system named is SK-N-FI. Kind of data set: cells. It counts as cell-based, human. The settings on record: Table 1C. As to the method: as §1, §5
In data set [12] the test system is DC-3F/ADII. Nature of the data set: SRB cytotoxicity, DC-3F/ADII. It counts as cell-based, hamster. The settings on record: Table 3; read-out: IC50. As for the experimental part: as §4, §1, §5, §6
Data set [13] deals with DC-3F hamster lung fibroblast cell line. Kind of data set: SRB cytotoxicity, DC-3F. Conditions: read-out: IC50. It counts as cell-based. As for the experimental part: as §4, §1, §5
For data set [14], the system named is MCF-7. Kind of data set: SRB cytotoxicity, MCF-7. It counts as cell-based, human. Conditions: Table 1C; SRB, 72 h; read-out: IC50. As to the method:
as §5

`C/C(=C\c1csc(C)n1)[C@@H]1C/C=C\CCCC[C@H](O[Si](C)(C)C(C)(C)C)[C@@H](C)C(=O)C(C)(C)[C@@H](O[Si](C)(C)C(C)(C)C)CC(=O)O1` returned a ring closure, yield of all isomers in [1] of 75%.
On to `Cc1c2oc3c(C)ccc(C(=O)N[C@@H]4C(=O)N[C@H](C(C)C)C(=O)N5CCC[C@H]5C(=O)N(C)CC(=O)N(C)[C@@H](C(C)C)C(=O)O[C@@H]4C)c3nc-2c(C(=O)N[C@@H]2C(=O)N[C@H](C(C)C)C(=O)N3CCC[C@H]3C(=O)N(C)CC(=O)N(C)[C@@H](C(C)C)C(=O)O[C@@H]2C)c(N)c1=O` [Actinomycin D, actinomycin D] (I: T[dV]P[Sar][NMeV] / II: T[dV]P[Sar][NMeV]; ester I:1-I:C, II:1-II:C; linker I:N-II:N via Actinocin(9to1)), for which the “folds of resistance (IC50 ratio vs parent cell line)” value in data set [2] (P388/Adr vs P388/O) is reported as “(8x)”; in data set [3] (Table 1C, DC-3F/ADX vs DC-3F), “(13000x)”; in data set [4] (MCF-7/Adr vs MCF-7), “(2.5x)”; in data set [11] (SK-N-FI vs SK-N-As) it was “(14x)”. Further, the IC50 is 1.2 nM in [2] (XTT, 72 h, read-out: IC50); 572 nM in data set [3] (Table 1C, SRB, 72 h); 486 nM in data set [3] (Table 3); 1.67 nM in data set [4] (SRB, 72 h, read-out: IC50); 38 nM in data set [5] (XTT, 72 h, read-out: IC50); 0.27 nM in [6] (XTT, 72 h, read-out: IC50). Also, the IC50 is 1.3 nM in data set [7] (Table 1A, XTT, 72 h, read-out: IC50); 0.15 nM in data set [8]; 0.85 nM in data set [9]; 0.35 nM in [10]; 11.9 nM in data set [11] (SRB, 72 h, read-out: IC50); 8.2 nM in data set [12]. For the same compound, the IC50 is 0.44 nM in data set [13] (Table 1C, SRB, 72 h); 0.058 nM in data set [13] (Table 3); 0.0582 nM in data set [13] (Table 3, value in parentheses); 0.68 nM in data set [14]. Besides, in data set [3] (DC-3F/ADX cells, listed as AD), the “fold resistance vs parent DC-3F” value is 13,000 fold. The “(B)/(A) IC50 ratio” value in [5] (CCRF-CEM/VBL100 vs CCRF-CEM) is on record as 109. For the same compound, the “(D)/(A) IC50 ratio” value in data set [6] (CCRF-CEM/VM1 vs CCRF-CEM) is reported as 0.8. In addition, the “(C)/(A) IC50 ratio” value in data set [7] was found to be 3.7.
